Measurements published in publication PMC3914206.

Assays:
[1] = target: T1, panel of 442 kinases (Homo sapiens, UniProt O75747); assay type: binding; conditions: Compound Concentration 10 µM
T1 construct: purchased KINOMEscan
T1 sequence (O75747 1-1486): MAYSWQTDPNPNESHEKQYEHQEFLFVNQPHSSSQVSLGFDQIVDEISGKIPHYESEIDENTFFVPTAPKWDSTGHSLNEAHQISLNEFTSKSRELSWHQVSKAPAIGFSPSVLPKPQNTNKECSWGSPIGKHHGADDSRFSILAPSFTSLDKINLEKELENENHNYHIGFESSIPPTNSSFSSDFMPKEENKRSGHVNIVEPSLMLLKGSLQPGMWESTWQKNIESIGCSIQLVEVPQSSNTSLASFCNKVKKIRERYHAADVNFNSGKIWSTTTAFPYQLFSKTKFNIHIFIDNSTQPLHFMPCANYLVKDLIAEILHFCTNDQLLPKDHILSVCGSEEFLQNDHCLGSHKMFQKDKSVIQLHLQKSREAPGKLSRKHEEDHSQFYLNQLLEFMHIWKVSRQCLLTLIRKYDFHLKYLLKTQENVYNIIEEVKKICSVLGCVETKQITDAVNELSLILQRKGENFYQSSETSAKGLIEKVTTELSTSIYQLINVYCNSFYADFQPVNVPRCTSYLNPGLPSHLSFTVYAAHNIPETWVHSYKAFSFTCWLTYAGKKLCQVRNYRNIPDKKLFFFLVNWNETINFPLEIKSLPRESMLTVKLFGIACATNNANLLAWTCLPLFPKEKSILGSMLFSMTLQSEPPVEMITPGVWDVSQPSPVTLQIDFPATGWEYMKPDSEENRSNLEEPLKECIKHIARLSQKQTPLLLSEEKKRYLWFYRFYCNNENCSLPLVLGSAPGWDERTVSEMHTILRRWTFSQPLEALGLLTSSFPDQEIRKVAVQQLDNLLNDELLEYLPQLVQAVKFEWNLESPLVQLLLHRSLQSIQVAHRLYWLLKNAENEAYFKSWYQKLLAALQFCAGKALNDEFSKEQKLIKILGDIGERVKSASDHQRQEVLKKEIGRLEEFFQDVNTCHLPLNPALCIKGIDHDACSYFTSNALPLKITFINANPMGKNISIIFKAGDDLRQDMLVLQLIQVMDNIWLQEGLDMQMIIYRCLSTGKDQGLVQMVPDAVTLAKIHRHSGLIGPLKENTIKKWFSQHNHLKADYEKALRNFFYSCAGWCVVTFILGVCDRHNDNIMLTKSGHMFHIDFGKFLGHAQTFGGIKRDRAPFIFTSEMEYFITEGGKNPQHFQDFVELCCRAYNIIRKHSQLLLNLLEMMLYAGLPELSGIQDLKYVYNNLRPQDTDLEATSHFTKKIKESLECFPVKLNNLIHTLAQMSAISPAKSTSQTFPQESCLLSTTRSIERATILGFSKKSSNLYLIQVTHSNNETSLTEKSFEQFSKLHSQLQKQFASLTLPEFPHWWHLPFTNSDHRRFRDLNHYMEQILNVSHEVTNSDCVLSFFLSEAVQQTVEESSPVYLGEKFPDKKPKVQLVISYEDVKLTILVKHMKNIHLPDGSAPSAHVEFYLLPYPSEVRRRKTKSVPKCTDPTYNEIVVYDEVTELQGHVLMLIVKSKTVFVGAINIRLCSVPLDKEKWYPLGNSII
Description: (§1) We assessed the selectivity of members of this scaffold using the KINOMEscan methodology across a near comprehensive panel of 442 kinases [[18,27]].

[2] = target: T2, panel of 442 kinases (Homo sapiens, UniProt Q9HBH9); assay type: binding; conditions: Compound Concentration 10 µM
T2 construct: purchased KINOMEscan
Description: as §1

T2 sequence (Q9HBH9 whole entry): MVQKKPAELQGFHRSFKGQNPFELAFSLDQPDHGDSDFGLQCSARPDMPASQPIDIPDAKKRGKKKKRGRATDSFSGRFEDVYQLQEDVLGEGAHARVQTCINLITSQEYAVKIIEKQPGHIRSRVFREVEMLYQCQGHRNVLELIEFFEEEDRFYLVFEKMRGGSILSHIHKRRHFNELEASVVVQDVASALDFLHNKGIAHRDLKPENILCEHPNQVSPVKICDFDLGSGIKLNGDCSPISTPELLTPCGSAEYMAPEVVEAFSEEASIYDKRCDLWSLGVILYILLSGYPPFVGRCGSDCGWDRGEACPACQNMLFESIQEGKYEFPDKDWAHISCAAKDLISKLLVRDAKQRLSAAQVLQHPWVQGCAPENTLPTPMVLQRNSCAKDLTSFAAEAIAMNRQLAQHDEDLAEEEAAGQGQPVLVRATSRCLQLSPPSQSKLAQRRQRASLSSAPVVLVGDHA

| SMILES | KINOMEscan: PIK3C2G [1] | KINOMEscan: MKNK2 [2] |
| --- | --- | --- |
| CCOc1cc(C(=O)N2CCC(N3CCN(C)CC3)CC2)ccc1Nc1ncc2c(n1)N(C1CCCC1)c1ccccc1C(=O)N2C [Compound 26] | 99 | 100 |
| COc1cc(C(=O)N2CCC(N3CCN(C)CC3)CC2)ccc1Nc1ncc2c(n1)N(C1CCCC1)c1ccccc1C(=O)N2C [Compound 25, 11-cyclopentyl-2-((2-methoxy-4-(4-(4-methylpiperazin-1-yl)piperidine-1-carbonyl)phenyl)amino)-5-methyl-5H-benzo[e]pyrimido[5,4-b][1,4]diazepin-6(11H)-one] | 100 | 100 |
| COc1cc(C(=O)N2CCC(N3CCN(C)CC3)CC2)ccc1Nc1ncc2c(n1)N1CCc3cccc(c31)C(=O)N2C [Compound 24] | – | 8.6 |
| COc1cc(C(=O)N2CCC(N3CCN(C)CC3)CC2)ccc1Nc1ncc2c(n1)N(C)c1ccccc1C(=O)N2C [15 (LRRK2-IN-1)] | 100 | 1.2 |
